Test results reported in patent publication US11346839B2, “Method for determining the interaction between a ligand and a receptor” (INSINGULO AB, priority 2018, dated 2022).
Like-named read-outs stand apart in the source and are kept apart here.

Target: human-thrombin (Homo sapiens, UniProt P00734)
Conditions: Example 2, thrombin 1 pM
Procedure: To yield liposomes with a diameter of ˜100 nm first the required lipids were solved in chloroform and mixed. In total 5 mg 2-Oleoyl-1-palmitoyl-sn-glycero-3-phosphocholine, 0.01 mg, 1,2-dioleoyl-sn-glycero-3-phosphoethanolamine-N-dibenzocyclooctyl and 0.005 mg 1,2-dipalmitoyl-sn-glycero-3-phosphoethanolamine-N-(lissamine rhodamine B sulfonyl) were mixed together. The lipid mixture was vacuum dried overnight. The dried lipids were hydrated in 1 ml HBS (150 mM NaCl, 20 mM/L HEPES at pH7.2) under gentle agitation. The lipid suspension was extruded through a PC-membrane with 100 nm pore size eleven times. Concentration of the liposomes was determined by light absorption at 544 nm and the concentration of the liposome solution was adjusted to 2.5 mg/ml. This equals a liposome concentration of approximately 30 nM.
To immobilize thrombin at the liposomes via click chemistry an azide-group was introduced to thrombin via NHS coupling. Therefore, 100 μL of human-thrombin at 2 mg/ml was mixed with 200 μL high salt PBS-buffer (10 mM Na2HPO4, 1.8 mM KH2PO4, 400 mM NaCl+33.5% Glycerol (v/v) at pH 7.4 and 13 μL NHS-PEG4-Azide at 10 mM. The mixture was incubated for 30 minutes at RT. The reaction was stopped by the addition of 500 μL high salt PBS-buffer (10 mM Na2HPO4, 1.8 mM KH2PO4, 400 mM NaCl+33.5% Glycerol (v/v) at pH 6.6.
1.5 μL of the thrombin-azide were mixed with 48.5 μL icecold CHES-buffer (20 mM CHES, 150 mM NaCl) at pH 8.5 and subsequently 50 μL of the liposome solution is added. This mix was stored for at least 30 minutes on ice. 10 μL of the reaction mix was diluted with 990 μL icecold CHES-buffer (20 mM CHES, 150 mM NaCl) at pH 8.5.
After curing, into each well of the microplate 10 μL of a solution containing 1 mg/ml PLL-g-PEG and 1 mg/ml PLL-g-PEG-biotin are added. The plate was incubated for at least 1 h under gentle orbital agitation. After the incubation each well was washed 10-times with HBS-buffer. The dilution ratio of every washing step was at least 1:10. […]
The single molecule microscope was based on a Nikon Ti-E base. […] Images are recorded via a [sequence] […]

Q: `N=C(N)c1ccc(CNC(=O)[C@@H]2CCN2C(=O)[C@H](NCC(=O)O)C2CCCCC2)cc1` [melagatran] was tested. Which kobs (one hundred wells summed, melagatran 7.4 nM (FIG. 6)) did it give?
A: Its kobs is 0.22 s⁻¹.

Q: What about the kobs (single well, melagatran 7.4 nM (FIG. 4)) of the same compound?
A: The kobs was “could not be reliably fitted”.

Q: What about the kobs (two wells summed, melagatran 7.4 nM (FIG. 5)) of the same compound?
A: The kobs was 0.43 s⁻¹.
